Test results from US5137811A, “Method for diagnosing periodontal diseases with a substrate specific for aminopeptidase activity of periodontopathic bacteria” (Sunstar Kabushiki Kaisha, priority 1986, dated 1992).
Where a SMILES comes first, the peptide text is derived from it. The star is where a group is joined. βNA = c1ccc2cc(N*)ccc2c1; Cbz = O=C(OCc1ccccc1)*

How the values were obtained:
[1] = system: periodontopathic bacteria specific aminopeptidase activity; assay: Hydrolytic activity of gingival crevicular fluid specimens, OD525 (Experiment 6); assay type: biochemical
Method: (§1) Substrate compounds for aminopeptidase enzyme having various color developing groups derived from β-naphthylamine were dissolved in 0.1M Tris-HCl buffer (pH 7.0) at the concentration of 0.2 mM to obtain substrate solutions.
(§2) To the substrate solution (1.5 ml) was added the above cell suspension (0.3 ml) and reacted at 37° C. for 60 minutes. After completion of the reaction, a coloring reagent [prepared by dissolving diazonium salt of Garnet GBC in 1M acetate buffer (containing 10% Tween 20, pH: 4.2) at the concentration of 0.5 mg/ml] was added and, after 15 minutes, the absorption at 525 nm was determined with a spectrophotometer.
(§3) Specimens of gingival crevicular fluid were collected with paper points from five subjects who were considered to be healthy from their clinical state, six subjects with gingivitis and six subjects with periodontitis. Each specimen was dispersed in Ringer's solution (1.5 ml), and the relative amount of spirochete to total bacteria: [formula] was determined with a phase contrast microscope. Further, the Ringer's solution (0.3 ml) was tested for hydrolytic activity using the substrate solution prepared in the same manner as described in Experiment 1. As substrates, there were used compounds of the formula [1], i.e., N-benzoylvalyl-glycyl-arginine-β-naphthylamide (BzVGR) and N-carbobenzoxy-valyl-glycyl-arginine-β-naphthylamide (CxVGR) were used.
According to the same manner as described in Experiment 4, hydrolytic activity was tested by using the compounds of the formulas and [2], i.e., glycyl-proline-βnaphthylamide (GP), N-benzoyl-arginyl-glycyl-phenylalanylproline-β-naphthylamide (BzRGFP), N-carbobenzoxy-valylglycyl-arginine-β-naphthylamide (CxVGR) and N-benzoylglycyl-arginine-β-naphthylamide (BzGR) alone or in combination. Hydrolytic activity was determined by measuring absorption at 525 nm (OD525) and expressed as follows.

[2] = system: periodontopathic bacteria specific aminopeptidase activity; assay: Hydrolytic activity of saliva supernatant (Experiment 7); assay type: biochemical; settings: 37° C. for 4 hours, Table 7
Method: as §3
(§4) A saliva mixture was collected from a group consisting of ten healthy subjects and centrifuged to obtain a supernatant. Likewise, centrifuged supernatants were obtained from a group of ten subjects with adult periodontitis and a group of four localized juvenile periodontitis. The supernatant was used as a specimen and its hydrolytic activity was determined according to the same manner as described in Experiment 4 except that the reaction was carried out at 37° C. for 4 hours. As the substrates, there were used N-carbobenzoxy-valyl-glycyl-arginine-p-nitrophenol (CxVGR-pNP), N-carbobenzoxy-valyl-glycylarginine-4-methoxy-2-naphthylamide (CxVGR-4NA) and N-carbobenzoxy-valyl-glycyl-arginine-β-naphthylamide (CxVGR-βNA). Color was developed by using lN sodium hydroxide for CxVGR-pNP and Fast Blue BB for CxVGR-4NA and CxVGR-βNA.

Treponema denticola [3] = assay: Hydrolytic activity of cell suspension, substrates alone or in combination (Experiment 3); assay type: cell-based; settings: four strains, Table 3
Procedure, shortened: (§5)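 Cell suspensions (A660 = 1.0) were grown at 37 °C: Treponema anaerobically in TYGVS for 7 days, others in BHI broth for 48–72 h. They were reacted 60 min at 37 °C with 0.2 mM β-naphthylamide aminopeptidase substrate solutions (0.1 M Tris-HCl, pH 7.0), then Garnet GBC was added and A525 read after 15 min. Mean released β-naphthylamine per species was graded: +++ 40–<80, ++++ ≥80 nmol/ml.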

Fusobacterium nucleatum [4] = assay: as above; assay type: cell-based; settings: three strains, Table 3
Procedure, shortened: as §5

Actinomyces israelli = assay: as above; assay type: cell-based; settings: two strains, Table 3
Procedure, shortened: as §5

B. gingivalis = assay: as above; assay type: cell-based; settings: five strains, Table 3
Procedure, shortened: as §5

[5] = system: Actinobacillus actinomycetemcomitans; assay: as above; assay type: cell-based; settings: four strains, Table 3
Procedure, shortened: as §5

[6] = system: periodontopathic bacteria specific aminopeptidase activity; assay: Hydrolytic activity of gingival crevicular fluid specimens, visually evaluated (Experiment 4); assay type: biochemical; design: key: -: orange; +: dark orange; ++: brown; +++: dark brown
Method: as §1, §2, §3
In table 4, hydrolytic activity was visually evaluated and expressed as follows: […]

Treponema denticola [7] = assay: Hydrolytic activity of oral anaerobe cell suspension on aminopeptidase substrates (Experiment 1); assay type: cell-based; settings: four strains, substrate 0.2 mM, pH 7.0, 37° C., 60 minutes, Table 1
Procedure, shortened: (§6)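 Treponema grown anaerobically in TYGVS (37 °C, 7 days) and other strains in brain heart infusion (37 °C, 48–72 h), then diluted to A660 1.0. Cells reacted 60 min at 37 °C with β-naphthylamine-derived substrates (0.2 mM solution, 0.1 M Tris-HCl pH 7.0). Garnet GBC coupling, A525 after 15 min; activity graded from mean released β-naphthylamine per strain.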

Fusobacterium nucleatum [8] = assay: as above; assay type: cell-based; settings: three strains, substrate 0.2 mM, pH 7.0, 37° C., 60 minutes, Table 1
Procedure, shortened: as §6

Capnocytophaga sp. = assay: as above; assay type: cell-based; settings: four strains, substrate 0.2 mM, pH 7.0, 37° C., 60 minutes, Table 1
Procedure, shortened: as §6

Bacteroides gingivalis = assay: as above; assay type: cell-based; settings: five strains, substrate 0.2 mM, pH 7.0, 37° C., 60 minutes, Table 1
Procedure, shortened: as §6

[9] = system: Actinobacillus actinomycetemcomitans; assay: as above; assay type: cell-based; settings: four strains, substrate 0.2 mM, pH 7.0, 37° C., 60 minutes, Table 1
Procedure, shortened: as §6

[10] = system: periodontopathic bacteria specific aminopeptidase activity; assay: Hydrolytic activity of saliva supernatant, substrates alone or in combination (Experiment 9); assay type: biochemical; settings: 37° C. for 4 hours, Table 9
Method: as §4
According to the same manner as described in Experiment 7, hydrolytic activity was tested by using N-carbobenzoxy-valyl-glycyl-arginine-β-naphthylamide (CxVGR-βNA), N-benzoyl-arginyl-glycyl-phenylalanyl-proline-β-naphthylamide (BzRGFP-βNA), N-carbobenzoxy-valyl-glycylarginine-p-nitrophenol (CxVGR-pNP) and N-benzoyl-arginylglycyl-phenylalanyl-proline-p-nitrophenol (BzRGFP-pNP) alone or in combination as the substrates.

[11] = Gingivitis subject 1 (spirochete 7.3 %)
[12] = Gingivitis subject 2 (spirochete 16.7 %)
[13] = Gingivitis subject 3 (spirochete 20.5 %)
[14] = Gingivitis subject 4 (spirochete 6.8 %)
[15] = Gingivitis subject 5 (spirochete 7.3 %)
[16] = Gingivitis subject 6 (spirochete 14.4 %)
[17] = Healthy subject 1 (spirochete 0.1 %)
[18] = Healthy subject 2 (spirochete 2.5 %)
[19] = Healthy subject 3 (spirochete 1.1 %)
[20] = Healthy subject 4 (spirochete 0.6 %)
[21] = Healthy subject 5 (spirochete 1.3 %)
[22] = Periodontitis subject 1 (spirochete 45.2 %)
[23] = Periodontitis subject 2 (spirochete 30.3 %)
[24] = Periodontitis subject 3 (spirochete 34.6 %)
[25] = Periodontitis subject 4 (spirochete 21.2 %)
[26] = Periodontitis subject 5 (spirochete 40.3 %)
[27] = Periodontitis subject 6 (spirochete 35.1 %)
[28] = Localized juvenile periodontitis subjects

`CC(C)[C@H](NC(=O)OCc1ccccc1)C(=O)NCC(=O)N[C@@H](CCCNC(=N)N)C(=O)Nc1ccc2ccccc2c1` [CxVGR, N-carbobenzoxy-valyl-glycyl-arginine-β-naphthylamide] (Cbz-Val-Gly-Arg-βNA) was tested, and the “hydrolytic activity, absorption at 525 nm (OD525)” value (from here on “hydrolytic activity, absorption”) [1, 11] was “+ (0.1≤OD525 <0.2)”, the “hydrolytic activity, absorption” value [1, 12] was “+ (0.1≤OD525 <0.2)” and the “hydrolytic activity, absorption” value [1, 13] was “++ (0.2≤OD525 <0.4)”. For the same compound, the “hydrolytic activity, absorption” value [1, 14] was “- (OD525 <0.1)”, the “hydrolytic activity, absorption” value [1, 15] was “- (OD525 <0.1)” and the “hydrolytic activity, absorption” value [1, 16] was “+ (0.1≤OD525 <0.2)”. For the same compound, the “hydrolytic activity, absorption” value [1, 17] was “- (OD525 <0.1)”, the “hydrolytic activity, absorption” value [1, 18] was “+ (0.1≤OD525 <0.2)” and the “hydrolytic activity, absorption” value [1, 19] was “- (OD525 <0.1)”. The “hydrolytic activity, absorption” value [1, 20] was “- (OD525 <0.1)”, the “hydrolytic activity, absorption” value [1, 21] was “- (OD525 <0.1)” and the “hydrolytic activity, absorption” value [1, 22] was “+++ (0.4≤OD525 <0.8)”. For the same compound, the “hydrolytic activity, absorption” value [1, 23] was “+++ (0.4≤OD525 <0.8)”, the “hydrolytic activity, absorption” value [1, 24] was “+++ (0.4≤OD525 <0.8)” and the “hydrolytic activity, absorption” value [1, 25] was “+++ (0.4≤OD525 <0.8)”. For the same compound, the “hydrolytic activity, absorption” value [1, 26] was “+++ (0.4≤OD525 <0.8)”, the “hydrolytic activity, absorption” value [1, 27] was “+++ (0.4≤OD525 <0.8)” and the hydrolytic activity ([2]; Adult Periodontitis subjects) was 35.6 ± 9.8 nmol/mL. For the same compound, the hydrolytic activity ([2]; Healthy subjects) was 16.1 ± 10.3 nmol/mL, the hydrolytic activity [2, 28] was 33.4 ± 10.0 nmol/mL and the “hydrolytic activity (release amount)” value (Treponema denticola [3]) was “+++ (40≤release amount<80 nmol/ml)”. The “hydrolytic activity (release amount)” value (Fusobacterium nucleatum [4]) was “- (release amount<5 nmol/ml)”, the “hydrolytic activity (release amount)” value (Actinomyces israelli) was “- (release amount<5 nmol/ml)” and the “hydrolytic activity (release amount)” value (B. gingivalis) was “+++ (40≤release amount<80 nmol/ml)”. The “hydrolytic activity (release amount)” value [5] was “- (release amount<5 nmol/ml)”, the “hydrolytic activity, visually evaluated” value [6, 11] was “+” and the “hydrolytic activity, visually evaluated” value [6, 12] was “+”. For the same compound, the “hydrolytic activity, visually evaluated” value [6, 13] was “++”, the “hydrolytic activity, visually evaluated” value [6, 14] was “-” and the “hydrolytic activity, visually evaluated” value [6, 15] was “-”. For the same compound, the “hydrolytic activity, visually evaluated” value [6, 16] was “+”, the “hydrolytic activity, visually evaluated” value [6, 17] was “-” and the “hydrolytic activity, visually evaluated” value [6, 18] was “+”. For the same compound, the “hydrolytic activity, visually evaluated” value [6, 19] was “-”, the “hydrolytic activity, visually evaluated” value [6, 20] was “-” and the “hydrolytic activity, visually evaluated” value [6, 21] was “-”. The “hydrolytic activity, visually evaluated” value [6, 22] was “+++”, the “hydrolytic activity, visually evaluated” value [6, 23] was “+++” and the “hydrolytic activity, visually evaluated” value [6, 24] was “+++”. The “hydrolytic activity, visually evaluated” value [6, 25] was “+++”, the “hydrolytic activity, visually evaluated” value [6, 26] was “+++” and the “hydrolytic activity, visually evaluated” value [6, 27] was “+++”. The “hydrolytic activity (average amount of released β-naphthylamine)” value (Treponema denticola [7]) was “+++ (release amount≥40 nmol/ml)”, the “hydrolytic activity (average amount of released β-naphthylamine)” value (Fusobacterium nucleatum [8]) was “- (release amount<5 nmol/ml)” and the “hydrolytic activity (average amount of released β-naphthylamine)” value (Capnocytophaga sp.) was “- (release amount<5 nmol/ml)”. The “hydrolytic activity (average amount of released β-naphthylamine)” value (Bacteroides gingivalis) was “+++ (release amount≥40 nmol/ml)”, the “hydrolytic activity (average amount of released β-naphthylamine)” value [9] was “- (release amount<5 nmol/ml)” and the hydrolytic activity ([10]; Adult Periodontitis subjects) was 34.8 ± 10.2 nmol/mL. The hydrolytic activity ([10]; Healthy subjects) was 15.0 ± 8.8 nmol/mL and the hydrolytic activity [10, 28] was 31.5 ± 9.8 nmol/mL.
